Measurements taken from US9011853B2, “B7-H4 fusion proteins and methods of use thereof” (Amplimmune, Inc., priority 2009, dated 2015).
Several values for one entry are separate records, joined by “and”; a condition that tells them apart may be missing. Equal values may be shown once.

Columns and labels:
DBA/1 mice = assay: Therapeutic CIA study AA#80 (male mice), disease score; assay type: in vivo, mouse; settings: for clinical score: individual mice sampled for serum analysis; for AA#80 CIA disease scores: individual mice (Tag #)
Procedure: DBA/1 mice (10 per group) aged 7-9 weeks were used for the CIA model. Mice from several vendors (Jackson Laboratories, Harlan Laboratories, and Taconic Farms) were tested and it was determined that Taconic mice are most appropriate for the CIA studies. Taconic mice develop more consistent and severe disease symptoms and show continued disease progression, while mice from the other vendors often show stable, less severe disease, even in the absence of treatment. female (F) mice in AA#79 and male (M) mice in AA#80, were tested to determine which gender to use in future experiments.
On the day before the study is initiated, the hair on the right flank of each mouse was removed using an electric clipper. A metal identification tag was placed on the right ear of each mouse. On Day 0, mice were immunized with 100 μL of chicken collagen type II/Complete Freund's Adjuvant (CII/CFA) emulsion in the right flank. On Day 20, the hair on the left flank of each mouse was removed using an electric clipper, and on Day 21, mice were immunized with 100 μL of chicken collagen type II/Incomplete Freund's Adjuvant (CII/IFA) emulsion in the left flank. Pre-filled syringes of CII/CFA and CII/IFA emulsion purchased from Hooke Laboratories were used to ensure consistent dosing with and potency of the immunogen.
Early arthritis symptoms, such as erythema and mild swelling, usually appear on Day 21, and on Day 28, more severe symptoms such as swelling in many digits and inflammation extending to the tarsal joint are typically present. Each limb is evaluated for severity of arthritis symptoms three times a week using a widely accepted arthritis severity score system, shown in Table 2. The scores from each of the 4 limbs are summed to yield the disease score of each mouse. […]
Treatment was initiated when the average disease score for the study animals was greater than four. This corresponded to Day 29 in AA#79 and Day 24 in […]. By waiting until animals are symptomatic, it was ensured that the model is performed in a therapeutic rather than prophylactic mode.
B7-H4-Ig, RPA110010, and murine B7-H4-Ig proteins were administered by intraperitoneal (IP) injection 3 times a week for a total of 8 doses. RPA110010 is an extracellular domain variant of B7-H4-Ig, SEQ ID NO:126. Control murine and human IgG proteins were given once a week for a total of 3 doses. […] All proteins were diluted to the desired concentration (500 μg in 500 μL, or 1 mg/mL) with sterile PBS immediately before injection. Vehicle control mice receive Amplimmune formulation buffer diluted 1:10 in PBS, with an injection volume of 500 μL.

[1] = test system: serum levels of 58 analytes; assay: Serum biomarker analysis, quantitative immunoassay multi-analyte profiling (Rules-Based Medicine RodentMAP v2.9), AA#80; assay type: in vivo, mouse; settings: serum
Procedure: In AA#80, serum samples were collected on Day 27, Day 34, Day 41 and Day 55 via the submandibular vein. Approximately 200 μL of blood per mouse was collected in Microtainer® serum separator tubes. Serum was removed following centrifugation and stored at <−65° C. until analysis.
Selected serum samples were sent to Rules-Based Medicine (Austin, Tex.) for quantitative immunoassay multi-analyte profiling of serum samples, with the goal of identifying biomarkers that could be used to monitor disease progression and response to B7-H4-Ig treatment. Day 27, Day 34, and Day 41 sera from the three representative mice in the B7-H4-Ig group (tag #3332, 3334, and 3338) and three representative mice in the Synagis® group (tag #3324, 3329, and 3330) were analyzed for levels of 58 analytes using the RodentMAP v2.9 Testing Service.
Data from the Rules-Based Medicine analysis was analyzed using Microsoft Excel and GraphPad Prism software. T-tests were performed to compare the levels of each analyte in the B7-H4-Ig versus Synagis® treated samples. No correction was made for multiple comparisons. Additionally, correlation coefficients were calculated for each analyte versus disease score.

Substance: Human B7-H4-Ig: human B7-H4 extracellular domain fused to hinge, CH2 and CH3 regions of human immunoglobulin Cγ1 chain; representative SEQ ID NOs:114-137
- clinical score (DBA/1 mice; Day 27): 2 (2×) and 3
- clinical score (DBA/1 mice; Day 34): 5 and 4
- clinical score (DBA/1 mice; Day 41): 9 (2×) and 6
- AA#80 CIA disease scores (DBA/1 mice; Study Day 20): 4 (2×) and 2 (3×) and 3 (2×) and 5 (2×)
- AA#80 CIA disease scores (DBA/1 mice; Study Day 22): 4 (4×) and 3 and 5 (4×)
- AA#80 CIA disease scores (DBA/1 mice; Study Day 24): 4 (3×) and 5 (5×) and 2
- AA#80 CIA disease scores (DBA/1 mice; Study Day 27): 3 (3×) and 2 (5×) and 4
- AA#80 CIA disease scores (DBA/1 mice; Study Day 29): 2 (5×) and 3 and 1 and 5 (2×)
- AA#80 CIA disease scores (DBA/1 mice; Study Day 31): 2 (4×) and 3 and 1 and 4 (2×) and 5
- AA#80 CIA disease scores (DBA/1 mice; Study Day 34): 2 (2×) and 5 (3×) and 1 and 4 (2×) and 6
- AA#80 CIA disease scores (DBA/1 mice; Study Day 36): 3 and 7 (3×) and 4 (3×) and 5 and 6
- AA#80 CIA disease scores (DBA/1 mice; Study Day 38): 3 (4×) and 7 and 9 and 5 and 6 and 10 and 12
- AA#80 CIA disease scores (DBA/1 mice; Study Day 41): 4 and 9 (5×) and 6 and 10 and 13
- AA#80 CIA disease scores (DBA/1 mice; Study Day 44): 3 and 11 (3×) and 8 and 9 and 12 and 14 and 4
- SAP (Serum Amyloid P): Human LgG1 control vs. human B7-H4 Ig, ALL ([1]; p of difference between groups, ALL): 0.26
- SAP (Serum Amyloid P): Human LgG1 control vs. human B7-H4 Ig, D 27 ([1]; p of difference between groups, D 27): 0.32
- SAP (Serum Amyloid P): Human LgG1 control vs. human B7-H4 Ig, D 34 ([1]; p of difference between groups, D 34): 0.50
- SAP (Serum Amyloid P): Human LgG1 control vs. human B7-H4 Ig, D 41 ([1]; p of difference between groups, D 41): 0.13
- M-CSF (Macrophage-Colony Stimulating Factor) ([1]; Day 27, LDD 0.01795): 6.88 ng/mL and 6.51 ng/mL and 6.21 ng/mL
- MIP-1gamma (Macrophage Inflammatory Protein-1gamma) ([1]; Day 27, LDD 0.0736): 43.2 ng/mL and 38.6 ng/mL and 32.1 ng/mL
- TNF-alpha (Tumor Necrosis Factor-alpha) ([1]; Day 27, LDD 0.137): <low>
- TEMP-1 (Tissue Inhibitor of Metalicproteinase Type-1) ([1]; Day 27, LDD 0.18): 1.38 ng/mL and 1.31 ng/mL and 1.14 ng/mL
- IL-5 (Interleukin-5) ([1]; Day 27, LDD 0.194): 0.474 ng/mL and 0.333 ng/mL
- MIP-1alpha (Macrophage Inflammatory Protein-1alpha) ([1]; Day 27, LDD 0.2255): 2.83 ng/mL and 3.13 ng/mL and 3.03 ng/mL
- MIP-3beta (Macrophage Inflammatory Protein-3beta) ([1]; Day 27, LDD 0.465): 2.6 ng/mL and 2.79 ng/mL and 2.52 ng/mL
- Tissue Factor ([1]; Day 27, LDD 0.5175): 8.32 ng/mL and 11.7 ng/mL and 10 ng/mL
- MPO (Myeloperoxidase) ([1]; Day 27, LDD 0.95): 245 ng/mL and 227 ng/mL and 191 ng/mL
- SGOT (Serum Glutamic-Oxaloacetic Transaminase) ([1]; Day 27, LDD 1.86): 74.3 µg/mL and 84.6 µg/mL and 94.3 µg/mL
- TPO (Thromboproletin) ([1]; Day 27, LDD 2.66): 38 ng/mL and 39.8 ng/mL and 34.2 ng/mL
- SAP (Setrum Amtyloid P) ([1]; Day 27, LDD 5.4): 41 µg/mL and 39.5 µg/mL and 30.7 µg/mL
- MIP-2 (Macrophage Inflammatory Protein-2) ([1]; Day 27, LDD 7.174): 20.9 pg/mL and 16.3 pg/mL and 21.6 pg/mL
- MMP-9 (Matrix Metalloproteinase-9) ([1]; Day 27, LDD 10): 266 ng/mL and 140 ng/mL
- MCP-1 (Monocyte Chemoattractant Protein-1) ([1]; Day 27, LDD 16.924): 72.6 pg/mL and 55.4 pg/mL and 66.9 pg/mL
- VCAM-1 (Vescular Cell Adhesion Molecule-1) ([1]; Day 27, LDD 19): 2250 ng/mL and 2120 ng/mL and 2130 ng/mL
- MDC (Macrophage-Derived Chemokine) ([1]; Day 27, LDD 21.85): 1250 pg/mL and 1110 pg/mL and 1040 pg/mL
- Myoglobin ([1]; Day 27, LDD 24): 17.5 ng/mL and 12.1 ng/mL and 9.69 ng/mL
- MCP-3 (Monocyte Chemoattractant Protein-3) ([1]; Day 27, LDD 31.36): 160 pg/mL and 120 pg/mL and 129 pg/mL
- VEGF (Vescular Endotheial Cell Growth Factor) ([1]; Day 27, LDD 38.2): 150 pg/mL and 128 pg/mL and 160 pg/mL
- IP-10 (Inducible Protein-10) ([1]; Day 27, LDD 40.28): 57.3 pg/mL and 55.5 pg/mL and 38.6 pg/mL
- LIF (Leukemia Infabitory Factor) ([1]; Day 27, LDD 43.6): 1540 pg/mL and 1500 pg/mL
- MCP-5 (Monocyte Chemoattractant Protein-5) ([1]; Day 27, LDD 46.38): 41.4 pg/mL and 33.8 pg/mL and 29.4 pg/mL
- SCF (Stem Cell Factor) ([1]; Day 27, LDD 75.17): 204 pg/mL and 194 pg/mL and 275 pg/mL
